In US8288334B2, “Peptides for wound healing” (Gene Signal International SA, priority 2010, dated 2012):

How the values were obtained:
trans-dermal wounds = experiment: wound healing of trans-dermal wounds in mice after topical application; assay type: in vivo; settings: for wound healing compared with Vehicle treated wounds: 0.5 mg/ml (5 mg/kg), mice; for % healing of wounds, day 1 post treatment: day 1, 0.5 mg/ml (5 mg/kg), vehicle 16.9%; for % healing of wounds, day 1 post treatment / % healing of wounds, day 2 post treatment / % healing of wounds, day 3 post treatment / % healing of wounds, day 4 post treatment: 5 mm punch wounds; for % healing of wounds, day 2 post treatment: day 2, 0.5 mg/ml (5 mg/kg), vehicle 21.2%; for % healing of wounds, day 3 post treatment: day 3, 0.5 mg/ml (5 mg/kg), vehicle 45.9%; for % healing of wounds, day 4 post treatment: day 4, 0.5 mg/ml (5 mg/kg), vehicle 57.5%
Protocol: The vehicle (Batch A) was administered by topical application at a standardized volume of 10 ml/kg for all applications. The peptides of the invention were administered by topical application at the concentration of 0.5 mg/ml in the vehicle. The protocols of treatment were as it follows: • Group 1: (Batch A, Vehicle): 1 topical application 10 minutes after wounding • Group 2: (Peptide 7, 0.5 mg/ml): 1 topical application 10 minutes after wounding • Group 3: (Peptide 10, 0.5 mg/ml): 1 topical application 10 minutes after wounding • Group 4: (Peptide 11, 0.5 mg/ml): 1 topical application 10 minutes after wounding • Group 5: (Peptide 7B, 0.5 mg/ml): 1 topical application 10 minutes after wounding. • Group 6: (Peptide 7A, 0.5 mg/ml): 1 topical application 10 minutes after wounding. • Group 7: (Peptide 7C, 0.5 mg/ml): 1 topical application 10 minutes after wounding. Wounding
Healthy female BALBC Swiss mice were anesthetized by IP injection of Ketamine-Xylazine (80 mg/kg-12 mg/kg; Ref. K-113, Sigma, France). Two trans-dermal wounds, each of 5 mm in width and about 1 to 2 mm in depth were realized in the right and the left flanks of each mouse using 5 mm punch.
At D1, and 10 min post-injury of the animals, the mice were randomized into 7 groups of 3 mice each.
All treatments were realized by topical application at the frequency of 1 topical application/day, for 4 days. Animals of group 1 were treated with the vehicle solution (Batch A). Animals of groups 2 to 7 were treated with the indicated peptide at a dose of 5 mg/kg.

[1] = tested on: human microvascular endothelial cells (HMEC); experiment: in vitro angiogenesis assay (Matrigel, endothelial tube formation); assay type: cell-based; settings: 400 μg/ml final concentration of each peptide, images at 6 h post incubation
Protocol: Angiogenesis of human microvascular endothelial cells (HMEC) was induced in vitro using a Matrigel assay described by Grant et al (1989, Cell, 1989; 58:933). This method is based on the differentiation of endothelial cells to form capillary structures on a Matrigel Matrix. Matrigel is prepared the Engelbreth-Holm-Swarm (EHS) mouse tumor, which represents a complex mixture of basement membrane proteins including type IV collagen, entactin, proteo-heparan sulfate and other growth factors.
Briefly, 250 μl of Matrigel were transferred to each well of a 24-well culture plate and incubated at 37° C. for 30 min to allow for the matrix solution to solidify. HMEC grown in complete growth medium EGM-2MV were harvested by trypsin, suspended in the same growth medium and 500 μl containing 70 000 cells were added on top of the solidified Matrigel in each well and in the presence or absence of protein. Cells were maintained in a humidified atmosphere air containing 5% CO2 at 37° C. for 18-24 hrs. Endothelial tube formation was observed and photographed under an inverted light microscope.
The results of the in vitro angiogenesis assay were presented in FIG. 1, using HMEC and 400 μg/ml final concentration of each peptide. Images were taken at 6 h post incubation.

VEGFA protein = VEGFA protein by human VEGFA sandwich ELISA in HMEC culture medium; assay type: cell-based; settings: HMEC incubated with increasing concentrations of peptide
Protocol: Serum-deprived HMEC were incubated with different concentrations of peptide 7 or peptide 10 or vehicle […]. After 3 washes with ice-cold PBS, cells were suspended with the protein extraction buffer (PEB) (20 mM Tris-HCl pH 7.5, 150 mM NaCl, 1 mM EDTA, 1 mM EGTA, 1% Triton, 25 mM sodium pyrophosphate, 1 mM β-glycero-phosphate, 1 mM Na3Vo4, 1 μg/ml leupeptine, 1 μM PMSF). The protein content was measured by Bradford. VEGFA concentration in the culture medium or in the extracts was determined by human VEGFA Sandwich ELISA kit (Cell Signaling technology) according to the manufacturer's instructions.

[2] = tested on: Akt (phosphoserine 473 pAkt); experiment: activation status of protein kinase B (pAkt) by western-blot in HMEC; assay type: cell-based, human; settings: 400 μg/ml, 10 min and 30 min post incubation, immunoblot
Protocol: The activation status of pAkt was determined by western-blot using an anti-phosphoserine 473 pAkt antibody, and anti-GAPDH mAb as internal standard.
The status of Akt in the HMEC following incubation with either peptide 7 or peptide 10 was investigated.

MAPK (Erk1 and 2) = experiment: activation status of MAPK (pErk1/2) by western-blot in HMEC; assay type: cell-based, human; settings: immunoblot anti-activated MAPK (pErk1/2)
Protocol: The activation status of MAPK was determined by western-blot using an anti-activated MAPK (pErk1/2) antibody, and anti-GAPDH mAb as internal standard.
We have also investigated the status of the mitogen activated protein kinase (MAPK), as it is well established that it represents another cascade of intracellular signaling could be implicated in the regulation of VEGF expression.

Row | Sequence | wound healing compared with Vehicle treated wounds (trans-dermal wounds) | in vitro angiogenesis-inducing activity [1] | % healing of wounds, day 1 post treatment (trans-dermal wounds) | % healing of wounds, day 2 post treatment (trans-dermal wounds) | % healing of wounds, day 3 post treatment (trans-dermal wounds) | % healing of wounds, day 4 post treatment (trans-dermal wounds) | VEGF protein within the culture medium, concentration dependence (VEGFA protein) | level of activated Akt relative to HMEC incubated without peptide (Control) [2] | level of activation of Erk1 and 2 (MAPK) versus Control (MAPK (Erk1 and 2))
1 | ELDLQASL [Peptide 7B] | healed faster than the wounds treated with Vehicle |  |  |  |  |  |  |  | 
2 | QSQKVPRQVQS [Peptide 11] | healed faster than the wounds treated with Vehicle | strong in vitro angiogenesis-inducing activity |  |  |  |  |  |  | 
3 | RRTTQECPVRTSLD [Peptide 7C] | healed faster than the wounds treated with Vehicle |  | 39.4% | 55.3% | 58.8% | 68.2% |  |  | 
4 | TQECPVRTSLD [Peptide 7A] | healed faster than the wounds treated with Vehicle |  | 27.4% | 44.7% | 45.1% | 58.8% |  |  | 
5 | TQECPVRTSLDRELDLQASL [Peptide 7] | healed faster than the wounds treated with Vehicle | strong in vitro angiogenesis-inducing activity |  |  |  |  | dose-dependent increase in VEGF protein | much higher level of activated Akt | not significant variations in level of activation of Erk1 and 2
6 | VSKDVCRL [Peptide 10] | healed faster than the wounds treated with Vehicle | strong in vitro angiogenesis-inducing activity |  |  |  |  |  | much higher level of activated Akt | not significant variations in level of activation of Erk1 and 2
